For this assay, the system named is H1299_eGFP cells. Kind of assay: Transfection with Lipofectamine RNAiMAX or DOTAP-DOPE liposomes, with or without desloratadine, eGFP silencing. The settings on record: 40 μM, 2 h. Format: cell-based. How it is done:
Lipofectamine® RNAiMAX (Invitrogen, Belgium) was applied as prescribed by the manufacturer. In short, equal volumes of RNAiMAX and siRNA dilutions were mixed and allowed to complex during 5 minutes at room temperature. Transfection occurred in Opti-MEM®. According to the guidelines, 5 pmol siRNA/well was applied to obtain optimal transfection efficiencies. To allow comparison with the siNG transfection methods, the RNAiMAX lipoplexes were additionally further diluted to 0.6 pmol siRNA/well. […] Of note, a single biological replicate was performed with three technical replicates and data are represented as the mean±SEM.
DOTAP (2,3-dioleoyloxy-propyl)-trimethylammonium)—DOPE (1,2-dioleoyl-sn-glycero-3-phosphoethanolamine) liposomes (LPS) were prepared via the lipid film hydration method. […]
For silencing experiments, H1299_eGFP cells were seeded in 24 well plates at a density of 35000 cells/well and were allowed to settle overnight. […] SiNG-mediated eGFP silencing was determined by flow cytometry. […] For each sample the forward and side scatter as well as the green fluorescent signal were measured for at least 5000 cells. The samples were excited with the 488 nm laser line and the signal was detected with the 530/30 filter using the FACSCalibur™ flow cytometer (BD Biosciences, Belgium) and BD CellQuest™ acquisition software.

For `Clc1ccc2c(c1)CCc1cccnc1C2=C1CCNCC1` [(3) Desloratadine, Desloratadine], the “cytosolic siRNA delivery via cationic liposomes” value was “not able to enhance cytosolic siRNA delivery”.

Values taken from patent US11033572B2, “Molecular adjuvants for enhanced cytosolic delivery of active agents” (Universiteit Gent, priority 2017, dated 2021).
